Results from patent US9301951B2 (Ardelyx, Inc., priority 2010, dated 2016).

How the values were obtained:
[1] = human absorption; cited from earlier work
[2] = Determination of compound Cmax and AUC in plasma after oral gavage; type: in vivo, rat; conditions: Sprague-Dawley rats, actual oral dose 3-15 mg/kg, 0.5-4 h
Protocol: Sprague-Dawley rats were orally gavaged with test article at a nominal dose of 2.5 or 10 mg/kg and blood was collected at 0.5, 1, 2 and 4 h. Blood samples were processed to plasma using K2EDTA as an anticoaglulant. Plasma samples were treated with acetonitrile containing an internal standard, precipitated proteins removed by centrifugation. Supernatants were analyzed by LC-MS/MS and compound concentrations were determined by interpolation from a standard curve prepared in plasma. All compounds were orally dosed at the dosage shown, and pharmacokinetic parameters determined.

[3] = Stability of compounds in simulated intestinal fluid (SIF); type: in vitro ADME; conditions: simulated intestinal fluid (USP, 3 mg/mL pancreatin), 1-20 μM, incubation time 6 hr, relative to t=0
Protocol: (§1) Test compounds were incubated at 1-20 μM in simulated gastric fluid (SGF; standard USP solution with 3 mg/mL pepsin) or simulated intestinal fluid (SIF; standard USP solution with 3 mg/mL pancreatin) for 3 hr or 6 hr. HPLC-UV or HPLC-MS were used to determine test compound levels using peak area %. Results (Table 14) were reported as the percentage of test compound remaining after incubation in a given condition relative to test compound present at t=0 in the same condition.

[4] = Stability of compounds in simulated gastric fluid (SGF); type: in vitro ADME; conditions: simulated gastric fluid (USP, 3 mg/mL pepsin), 1-20 μM, incubation time 6 hr, relative to t=0
Protocol: as §1

rat NaP2b (SLC34A2) = target: T1, rat NaP2b (SLC34A2) (Rattus norvegicus, UniProt Q9JJ09); test: Inhibition of NaP2b-mediated Pi (33P) uptake in transfected HEK293 cells, rat NaP2b; type: cell-based; conditions: HEK293 cells transfected with rat NaP2b, 100 uM phosphate, 0.1 nM to 30 uM, read-out: pIC50 range for rat Nap2b (converted)
T1 construct: host or cells: HEK293
T1 sequence (Q9JJ09 1-695): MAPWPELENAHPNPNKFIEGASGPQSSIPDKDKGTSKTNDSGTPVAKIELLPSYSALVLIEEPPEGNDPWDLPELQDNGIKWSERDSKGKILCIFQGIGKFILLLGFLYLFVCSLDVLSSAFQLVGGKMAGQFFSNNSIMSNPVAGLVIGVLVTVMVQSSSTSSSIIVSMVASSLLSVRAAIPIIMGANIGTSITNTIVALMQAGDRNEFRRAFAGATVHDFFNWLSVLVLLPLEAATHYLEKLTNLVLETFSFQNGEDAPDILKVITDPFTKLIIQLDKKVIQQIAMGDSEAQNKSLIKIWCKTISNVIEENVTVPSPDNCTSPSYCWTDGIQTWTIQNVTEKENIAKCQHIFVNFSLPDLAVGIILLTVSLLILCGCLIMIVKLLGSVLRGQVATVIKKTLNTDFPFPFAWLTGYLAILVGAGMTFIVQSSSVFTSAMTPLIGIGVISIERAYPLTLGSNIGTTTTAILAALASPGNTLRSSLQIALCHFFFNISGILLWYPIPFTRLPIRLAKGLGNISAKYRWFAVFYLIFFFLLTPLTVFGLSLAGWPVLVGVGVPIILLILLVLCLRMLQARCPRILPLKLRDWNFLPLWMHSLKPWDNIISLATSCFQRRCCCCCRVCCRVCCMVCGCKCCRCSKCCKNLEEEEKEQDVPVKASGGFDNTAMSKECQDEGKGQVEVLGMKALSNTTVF
How it was run: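 HEK293 cells transiently transfected with rat NaP2b; 33P-phosphate uptake measured in sodium or choline buffer (100 uM KH2PO4, PiT-silencing agent, pH 7.4) with compound at twelve concentrations, 0.1 nM–30 uM, in duplicate. Lysed cells counted by scintillation; pIC50 derived from concentration-response.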

[5] = Fecal recovery of orally administered compounds; type: in vivo; conditions: rat; oral gavage; feces collected until 48 hr after dosing
Source text: In this respect, it is understood that a recovered compound can include the sum of the parent compound and its metabolites derived from the parent compound, e.g., by means of hydrolysis, conjugation, reduction, oxidation, N-alkylation, glucuronidation, acetylation, methylation, sulfation, phosphorylation, or any other modification that adds atoms to or removes atoms from the parent compound, wherein the metabolites are generated via the action of any enzyme or exposure to any physiological environment including, pH, temperature, pressure, or interactions with foodstuffs as they exist in the digestive milieu. Measurement of fecal recovery of compound and metabolites can be carried out using standard methodology. For example, compound can be administered orally at a suitable dose (e.g., 10 mg/kg) and feces are then collected at predetermined times after dosing (e.g., 24 hours, 48 hours, 72 hours). Parent compound and metabolites can be extracted with organic solvent and analyzed quantitatively using mass spectrometry. A mass balance analysis of the parent compound and metabolites (including, parent=M, metabolite 1 [M+16], and metabolite 2 [M+32]) can be used to determine the percent recovery in the feces.
Quantitative determination of test compound level in feces after oral gavage was performed using the same set of animals used to determine test compound concentration in plasma (Example 352). The animals were kept in metabolic cages and feces were collected from the time of dosing until 48 hr after dosing. Upon collection, feces were dried by lyophilization and ground to a visually homogenous powder. Duplicate samples of ground feces from each individual animal were weighed out and extracted using organic solvent. Extracted samples were then diluted into mobile phase and test compound levels were quantitatively determined by LC-MS/MS analysis as described in Example 352 except that the standard curve was prepared in a feces matrix. Extraction conditions were not optimized for individual compounds, and thus may represent a minimal level of recovery.

Sprague-Dawley rats = test: In vivo co-dosing in chow (urine P out / P consumed); conditions: feed or water; rat; drug in chow, nominal 100 mg/kg/day (mean dose per line in table); urine 24-96 h; read-out: Mean % inhibition Urine Pout/P consumed
Source text: Male, 7-week-old Sprague-Dawley rats (Charles-River laboratories international, Hollister, Calif.) were allowed to acclimate for a minimum of 3 days. The experiment was initiated by switching animals to a synthetic diet (0.6% phosphorus and 0.6% calcium, Harlan Teklad TD.84122) for four days. After this time, the animals were placed into metabolic cages for daily monitoring of food and water consumption, as well as urine and fecal collections. Test compounds were incorporated into the powdered diet listed above containing 3% chocolate flavoring (w/w, BioServ #7345) at 1.3 mg test compound per gram of diet to achieve an average daily nominal dose of 100 mg/kg/day. The actual dose received by each animal was later determined by measuring prepared diet consumption and body weight. Urine samples were collected in three daily periods from 24-48, 48-72, and 72-96 hours of drug dosing. […] Phosphorus levels in the urine were determined by anion exchange chromatography using a Dionex ICS-3000 ion chromatography system. […] Elution of urine phosphate ions was monitored via conductivity detector and reported as ppm relative to a standard ion solution containing phosphate. Daily urinary P output relative to the P consumed in the prepared diet for each animal was calculated. […] The differences between the means of control and treated groups were evaluated by t tests. […]

human NaP2b (SLC34A2) = target: T2, human NaP2b (SLC34A2) (Homo sapiens, UniProt O95436); test: Inhibition of NaP2b-mediated Pi (33P) uptake in transfected HEK293 cells, human NaP2b; type: cell-based; conditions: HEK293 cells transfected with human NaP2b, 100 uM phosphate, 0.1 nM to 30 uM, read-out: pIC50 range for human NaP2b (converted)
T2 construct: host or cells: HEK293
T2 sequence (O95436 1-690): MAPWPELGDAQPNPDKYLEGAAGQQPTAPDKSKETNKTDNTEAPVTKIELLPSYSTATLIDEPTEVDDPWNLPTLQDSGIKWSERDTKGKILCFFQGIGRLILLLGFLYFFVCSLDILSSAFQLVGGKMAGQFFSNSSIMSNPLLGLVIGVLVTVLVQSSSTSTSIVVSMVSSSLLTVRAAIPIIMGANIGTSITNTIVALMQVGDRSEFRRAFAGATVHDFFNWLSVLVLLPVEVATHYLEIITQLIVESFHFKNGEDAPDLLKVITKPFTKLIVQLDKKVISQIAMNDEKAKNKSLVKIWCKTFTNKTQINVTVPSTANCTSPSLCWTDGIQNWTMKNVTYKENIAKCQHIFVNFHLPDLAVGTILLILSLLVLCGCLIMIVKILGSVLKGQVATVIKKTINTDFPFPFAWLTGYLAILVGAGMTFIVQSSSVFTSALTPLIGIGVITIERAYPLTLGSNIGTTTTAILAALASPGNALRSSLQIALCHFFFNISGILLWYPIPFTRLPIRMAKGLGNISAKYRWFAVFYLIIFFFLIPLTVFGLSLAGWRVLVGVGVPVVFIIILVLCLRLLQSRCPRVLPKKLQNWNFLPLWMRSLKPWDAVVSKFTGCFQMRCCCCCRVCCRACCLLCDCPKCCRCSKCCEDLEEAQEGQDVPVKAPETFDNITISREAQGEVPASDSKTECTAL
Protocol: HEK293 cells were obtained from the American Type Culture collection and propagated per their instructions. Expression clones for rat and human NaP2b (SLC34A2) were obtained from Open Biosystems (Catalog numbers MRN1768-9510282, and MHS1010-99823026, respectively). The sequence of the human protein was mutated to insert a threonine after residue 37, and to introduce a N39D mutation.
The rate of phosphate (Pi) uptake into HEK293 cells was measured using a modification of the method described by Mohrmann et al. (Mohrmann, I., Mohrmann, M., Biber, J., and Murer, H. (1986) Am. J. Phys. 250(3 Pt 1):G323-30.) Transfected HEK293 cells were treated with a pharmacological agent to minimize endogenous PiT-mediated phosphate transport activity, such that the only remaining sodium-dependent phosphate transport activity is that which was bestowed by introduction of the NaP2b genes.
Cells were seeded into 96-well plates at 25,000 cells/well and cultured overnight. Lipofectamine 2000 (Invitrogen) was used to introduce the NaP2b cDNA, and the cells were allowed to approach confluence during a second overnight incubation. […] Cells were then overlayed with either choline uptake buffer or sodium uptake buffer (14 mM Tris, 137 mM sodium chloride, 5.4 mM KCl, 2.8 mM CaCl2, 1.2 mM MgSO4, 100 uM KH2PO4, PiT-silencing agent, 1 mg/mL Bovine Serum Albumin, pH 7.4) containing 6-9 uCi/mL ^33P orthophosphoric acid (Perkin Elmer) and test compound. Each compound was tested at twelve concentrations ranging from 0.1 nM to 30 uM. Assays were run in duplicate.
After incubation for 3-30 minutes at room temperature, assay mixtures were removed, and the cells were washed twice with ice cold stop solution (137 mM sodium chloride, 14 mM Tris, pH 7.4). Cells were lysed by addition of 20 μL 0.1% Tween 80 followed by 100 μL scintillation fluid, and counted using a TopCount (Perkin Elmer).
pIC50 (the negative log of the […]) values of the test compounds were calculated using GraphPad Prism.

## Cc1cc(=O)n(-c2ccccc2)n1C [phenazone]
[1]
  % FA: 97%

## (S)-2-(5-(diethylamino)-2-(3-(27-oxo-2,5,8,11,14,17,20,23,30,33,36,39-dodecaoxa-42-thia-26-azatritetracontan-43-yl)benzamido)phenyl)-N-(1,2,3,4-tetrahydronaphthalen-1-yl)isonicotinamide [Example 157.1]
[2]
  AUC: <30 ng·h/mL
  Cmax: <10 ng/mL

## CN(CCN1CCOCC1)C(=O)c1cccc(C(=O)Nc2ccc(OC3CCC3)cc2-c2cc(C(=O)NCc3cccc(C(F)(F)F)c3)ccn2)c1 [Example 26, N1-(4-Cyclobutoxy-2-(4-((3-(trifluoromethyl)benzyl)carbamoyl)pyridin-2-yl)phenyl)-N3-methyl-N3-(2-morpholinoethyl)isophthalamide]
[3]
  % remaining, SIF: 60-80%
[4]
  % remaining, SGF: >80%
Rat NaP2b (SLC34A2)
  IC50: 1 to 7.94 µM
[5]
  % recovered in feces: <20%

## CN(CCN1CCOCC1)C(=O)c1cccc(C(=O)Nc2ccc(N3CCCCC3)cc2-c2cc(C(=O)N[C@H]3CCCc4ccccc43)ccn2)c1 [Example 37, (S)—N1-Methyl-N1-(2-morpholinoethyl)-N3-(4-(piperidin-1-yl)-2-(4-((1,2,3,4-tetrahydronaphthalen-1-yl)carbamoyl)pyridin-2-yl)phenyl)isophthalamide]
Rat NaP2b (SLC34A2)
  IC50: < 1 µM
Sprague-Dawley rats
  inhibition in vivo at 100 mg/kg/day: ≤ 10%
Human NaP2b (SLC34A2)
  IC50: < 1 µM
